Here are results for eleven molecules from paper PMC6100633, “Design, Synthesis, and Evaluation of a New Series of Thiazole-Based Anticancer Agents as Potent Akt Inhibitors” (Molecules : A Journal of Synthetic Chemistry and Natural …, 2018).

In brackets after ≈: the same amount, converted by molar mass.

Data set [1] deals with Akt. As to the kind of experiment: In cell ELISA colorimetric Akt activity, C6 cells. Type of data set: cell-based, rat. Conditions: compounds at IC50 concentrations for 24 h. On the procedure: (§1) Briefly, the media was removed and 100 µL of 4% formaldehyde was added to each well. The plate was incubated in a fume hood at room temperature for 15 min. Formaldehyde was removed and the plate was washed twice with 100 µL/well of 1× TBS. Then, 1× TBS was removed, 100 µL/well of 1× permeabilization buffer was added and incubated for 15 min at room temperature. The permeabilization buffer was removed and the plate was washed once with 100 µL/well of 1× TBS. Then, 1× TBS was removed, 100 µL/well quenching solution was added and incubated at room temperature for 20 min. Quenching solution was removed and the plate was washed once with 100 µL/well of 1× TBS. Then, 1× TBS was removed and 100 µL/well of blocking buffer was added and incubated at room temperature for 30 min. After the blocking buffer was removed, 50 µL/well of primary antibody was added. A plate sealer was applied and incubated overnight at 4 °C. The primary antibody solution was removed and the plate was washed three times with 100 µL/well of 1× wash Buffer. After the wash buffer was removed, 100 µL/well of diluted HRP conjugate was added and incubated for 30 min at room temperature. The wash buffer was removed and 100 µL/well of TMB substrate was added. The plate was then incubated at room temperature, protected from light. 100 µL/well of TMB stop solution was added and the absorbance was measured at 450 nm within 30 min of stopping the reaction. The experiment was performed in triplicate wells. The values of blank wells were subtracted from each well of treated and control cells. Percent Akt activity was defined as the relative absorbance of treated versus untreated control cells.

A further data set concerns A549 cells. As to the kind of experiment: Annexin V FITC/PI flow cytometric analysis of apoptosis, A549 cells. In kind it is cell-based, human. Conditions: 24 h, compounds at IC50 values. On the procedure: (§2) Annexin V staining protocol was applied according to the manufacturer’s instructions (BD Pharmingen, San Jose, CA, USA). The cells were then briefly washed with cold phosphate buffer saline (PBS) and suspended in a binding buffer at a concentration of 1 × 10^6 cells/mL. Then, 100 µL of this solution containing 1 × 10^5 cells was transferred to a 5 mL test tube. After 5 µL of Annexin V and PI was added, the cells were incubated for 15 min at room temperature in the dark. Then 400 µL of 1× binding buffer was added to each tube and the cells were processed for data acquisition, and analyzed on a BD FACSAria flow cytometer using FACSDiva version 6.1.1 software (BD Biosciences, San Jose, CA, USA).
In general terms: In flow cytometry, cells or beads pass a laser one at a time.

The test system of data set [2] is A549 human lung adenocarcinoma cell line. As to the kind of experiment: MTT assay, A549 cells. Type of data set: cell-based. Conditions: for IC50: Homo sapiens, A549, 24 h. On the procedure: (§3) C6 Rat glioma and NIH/3T3 mouse embryonic fibroblast cells were incubated in Dulbecco’s Modified Eagle’s Medium (DMEM) (Sigma, Deisenhofen, Germany) supplemented with 10% fetal calf serum (Gibco, Paisley, UK). A549 Human lung adenocarcinoma cells were incubated in 90% RPMI supplemented with 10% fetal bovine serum (Gibco, Paisley, UK). All media were supplemented with 100 IU/mL penicillin-streptomycin (Gibco, Paisley, UK) and the cells were incubated at 37 °C in a humidified atmosphere of 95% air and 5% CO2. Exponentially growing cells were plated at 2 × 10^4 cells/mL into 96-well microtiter tissue culture plates (Nunc, Roskilde, Denmark) and incubated for 24 h before the addition of the drugs (the optimum cell number for cytotoxicity assays was determined in preliminary experiments). The stock solutions of the compounds were prepared in dimethyl sulfoxide (DMSO; Sigma Aldrich, Poole, UK) and further dilutions were made with fresh culture medium (the concentration of DMSO in the final culture medium was <0.1% which had no effect on the cell viability).
(§4) The level of cellular 3-(4,5-dimethylthiazol-2-yl)-2,5-diphenyltetrazolium bromide (MTT) (Sigma-Aldrich, St. Louis, MO, USA) reduction was quantified as previously described in the literature with small modifications. […] At the end of this period, MTT was added to a final concentration of 0.5 mg/mL and the cells were incubated for 4 h at 37 °C. After the medium was removed, the formazan crystals formed by MTT metabolism were solubilized by addition of 200 µL DMSO to each well and absorbance was read at 540 nm with a microtiter plate spectrophotometer (BioTek Plate Reader, Winooski, VT, USA). Every concentration was repeated in three wells.

For the next data set, the system named is C6 cells. As to the kind of experiment: Annexin V FITC/PI flow cytometric analysis of apoptosis, C6 cells. In kind it is cell-based, rat. Particulars: for early and late apoptotic cell population: C6 cell line, sum of early and late apoptotic cells; for Early Apoptotic Cells% / Late Apoptotic Cells% / Viable Cells%: C6 cells, 24 h, compounds at IC50 values. On the procedure: as §2

Data set [3] relates to Akt. As to the kind of experiment: In cell ELISA colorimetric Akt activity, A549 cells. Type of data set: cell-based, human. Particulars: compounds at IC50 concentrations for 24 h. On the procedure:
as §1
Background: In an ELISA, binding on a coated surface is turned into a signal by an enzyme label.

For another data set, the system named is C6 rat glioma cell line. The data set is described as follows: MTT assay, C6 cells. Type of data set: cell-based. Conditions: for IC50: Rattus norvegicus, C6, 24 h. On the procedure: as §3, §4
On the technique in general: Tetrazolium assays rely on reduction of a dye to a coloured formazan, in cell work by metabolically active cells.

Data set [4] relates to NIH/3T3 mouse embryonic fibroblast cell line. As to the kind of experiment: MTT assay, NIH/3T3 cells (healthy). Type of data set: cell-based. Conditions: NIH3T3, 24 h. On the procedure: as §3, with “viability). The level of cellular 3-(4,5-dimethylthiazol-2-yl)-2,5-diphenyltetrazolium bromide (MTT) (Sigma-Aldrich, St. Louis, MO, USA) reduction was quantified as previously described in the literature with small modifications. […] At the end of this period, MTT was added to a final concentration of 0.5 mg/mL and the cells were incubated for 4 h at 37 °C. After the medium was removed, the formazan crystals formed by MTT metabolism were solubilized by addition of 200 µL DMSO to each well and absorbance was read at 540 nm with a microtiter plate spectrophotometer (BioTek Plate Reader, Winooski, VT, USA). Every concentration was repeated in three wells.” for “viability).”

In the case of `N.N.[Cl][Pt][Cl]` [Cisplatin, cisplatin, reference compound], the “Akt Inhibition % C6 Cell Line” value in the data set with Akt [1] came to 77.25 ± 5.75%. In the data set with A549 cells, the “Early Apoptotic Cells%” value was 2.6% and the “Late Apoptotic Cells%” value is given as 63.5%. Moreover, in data set [2] (24 h), the “IC50 A549 Cell Line” value turned out to be 17.33 ± 2.08 µg/mL. Also, in the data set on C6 cells, the “early and late apoptotic cell population” value amounted to 28.8%; the “Early Apoptotic Cells%” value is 3.3%; the “Late Apoptotic Cells%” value amounted to 25.5%. The “Akt Inhibition % A549 Cell Line” value in the data set with Akt [3] worked out at 31.01 ± 3.18%. In the data set on C6 rat glioma cell line (24 h), the “IC50 C6 Cell Line” value is listed as 12.67 ± 3.06 µg/mL.
Take `N#Cc1ccc(Oc2ccc(C=NNc3nc(-c4ccccc4)cs3)cc2)cc1` [Compound 1, 2-[2-((4-(4-Cyanophenoxy)phenyl)methylene)hydrazinyl]-4-phenylthiazole]: the IC50 (commonly the concentration that gives 50% inhibition) in data set [4] was 197 ± 20.8 µg/mL (≈ 496 µM); in data set [2], 410 ± 14.1 µg/mL (≈ 1030 µM); in the data set on C6 rat glioma cell line, above 500 µg/mL.
`N#Cc1ccc(Oc2ccc(C=NNc3nc(-c4ccc([N+](=O)[O-])cc4)cs3)cc2)cc1` [Compound 2, 2-[2-((4-(4-Cyanophenoxy)phenyl)methylene)hydrazinyl]-4-(4-nitrophenyl)thiazole]: the melting point (usually the temperature of the solid-liquid transition) fell in the range of 250 to 251 °C. The molecule also yielded a 50% inhibitory concentration (IC50) in data set [4] of 71.7 ± 24.7 µg/mL (≈ 162 µM). Also, the IC50 in data set [2] was found to be 100 ± 20 µg/mL (≈ 227 µM). Besides, the IC50 with C6 rat glioma cell line was above 500 µg/mL.
For `N#Cc1ccc(Oc2ccc(C=NNc3nc(-c4ccc(F)cc4)cs3)cc2)cc1` [Compound 3, 2-[2-((4-(4-Cyanophenoxy)phenyl)methylene)hydrazinyl]-4-(4-fluorophenyl)thiazole], the melting point fell in the range of 204 to 205 °C. The molecule also displayed an IC50 in data set [4] of 170 ± 36.1 µg/mL (≈ 410 µM). This molecule returned an IC50 in data set [2] of 193 ± 15.3 µg/mL (≈ 466 µM). This molecule also yielded an IC50 in the data set on C6 rat glioma cell line above 500 µg/mL.
Take `N#Cc1ccc(Oc2ccc(C=NNc3nc(-c4ccc(Cl)cc4)cs3)cc2)cc1` [Compound 4, 2-[2-((4-(4-Cyanophenoxy)phenyl)methylene)hydrazinyl]-4-(4-chlorophenyl)thiazole]: the melting point lay in the range of 227 to 228 °C. Also, the half-inhibitory concentration (IC50) in data set [4] stood at 180 ± 10 µg/mL (≈ 418 µM). Moreover, in data set [2], the half-inhibitory concentration (IC50) was found to be 207 ± 23.1 µg/mL (≈ 480 µM). In the data set on C6 rat glioma cell line, the IC50 is above 500 µg/mL.
Taken in the same sequence, the figures for `N#Cc1ccc(Oc2ccc(C=NNc3nc(-c4ccc(Br)cc4)cs3)cc2)cc1` [Compound 5, 2-[2-((4-(4-Cyanophenoxy)phenyl)methylene)hydrazinyl]-4-(4-bromophenyl)thiazole] were 217 to 218 °C, 163 ± 5.77 µg/mL (≈ 344 µM), 198 ± 10.4 µg/mL (≈ 417 µM) and above 500 µg/mL.
Regarding `N#Cc1ccc(Oc2ccc(C=NNc3nc(-c4ccc(C#N)cc4)cs3)cc2)cc1` [Compound 6, 2-[2-((4-(4-Cyanophenoxy)phenyl)methylene)hydrazinyl]-4-(4-cyanophenyl)thiazole], the melting point is 232 to 233 °C. This molecule gave an IC50 in data set [4] above 500 µg/mL. For the same molecule, in the data set with Akt [1], the “Akt Inhibition % C6 Cell Line” value worked out at 71.66 ± 4.09%. Further, in the data set with A549 cells, the “Early Apoptotic Cells%” value turned out to be 2.3%, the “Late Apoptotic Cells%” value was 36.5% and the “Viable Cells%” value was determined as 14.4%. The molecule also registered a 50% inhibitory concentration (IC50) in data set [2] of 12 ± 1.73 µg/mL (≈ 28.5 µM). Further, in the data set on C6 cells, the “early and late apoptotic cell population” value stood at 32.8%; the “Early Apoptotic Cells%” value is listed as 4.6%; the “Late Apoptotic Cells%” value worked out at 28.2%; the “Viable Cells%” value came to 42.2%. Moreover, the “Akt Inhibition % A549 Cell Line” value with Akt [3] worked out at 45.77 ± 10.58%. The half-inhibitory concentration (IC50) in the data set with C6 rat glioma cell line turned out to be 3.83 ± 0.76 µg/mL (≈ 9.09 µM).
In turn, `Cc1ccc(-c2csc(NN=Cc3ccc(Oc4ccc(C#N)cc4)cc3)n2)cc1` [Compound 7, 2-[2-((4-(4-Cyanophenoxy)phenyl)methylene)hydrazinyl]-4-(4-methylphenyl)thiazole] displayed a melting point of 228 to 229 °C. In addition, the IC50 in data set [4] amounted to 185 ± 5 µg/mL (≈ 451 µM). The “Akt Inhibition % C6 Cell Line” value in the data set on Akt [1] is given as 70.42 ± 10.37%. The IC50 in data set [2] amounted to 270 ± 95.4 µg/mL (≈ 658 µM). Besides, in the data set with C6 cells, the “Early Apoptotic Cells%” value turned out to be 3.2%, the “Late Apoptotic Cells%” value stood at 14.3% and the “Viable Cells%” value is 69.2%. The molecule also registered an IC50 with C6 rat glioma cell line of 16 ± 5.66 µg/mL (≈ 39 µM).
Molecule `N#Cc1ccc(Oc2ccc(C=NNc3nc(-c4ccc(O)cc4)cs3)cc2)cc1` [Compound 8, 2-[2-((4-(4-Cyanophenoxy)phenyl)methylene)hydrazinyl]-4-(4-hydroxyphenyl)thiazole] yielded a melting point of 249 to 250 °C. The molecule further showed an IC50 in data set [4] of 227 ± 11.6 µg/mL (≈ 550 µM). For the same molecule, the “Akt Inhibition % C6 Cell Line” value with Akt [1] was found to be 24.99 ± 0.52%. Moreover, in the data set with A549 cells, the “Early Apoptotic Cells%” value was determined as 2.1%, the “Late Apoptotic Cells%” value is on record as 38.7% and the “Viable Cells%” value stood at 18.5%. Inhibition in data set [2] was half-maximal at 107 ± 5.77 µg/mL (≈ 259 µM) (IC50). In addition, in the data set on C6 cells, the “Early Apoptotic Cells%” value is 1.9%, the “Late Apoptotic Cells%” value is on record as 23.8% and the “Viable Cells%” value amounted to 49.7%. Further, the “Akt Inhibition % A549 Cell Line” value with Akt [3] came out at 57.37 ± 17.30%. In the data set on C6 rat glioma cell line, the IC50 was found to be 5.83 ± 0.76 µg/mL (≈ 14.1 µM).
Regarding `COc1ccc(-c2csc(NN=Cc3ccc(Oc4ccc(C#N)cc4)cc3)n2)cc1` [Compound 9, 2-[2-((4-(4-Cyanophenoxy)phenyl)methylene)hydrazinyl]-4-(4-methoxyphenyl)thiazole], the melting point lay in the range of 210 to 211 °C. In addition, the IC50 in data set [4] amounted to 433 ± 28.9 µg/mL (≈ 1020 µM). For the same molecule, the midpoint of inhibition in data set [2], the IC50, lay at 233 ± 57.7 µg/mL (≈ 547 µM). The molecule also displayed an IC50 in the data set on C6 rat glioma cell line above 500 µg/mL.
The molecule `N#Cc1ccc(Oc2ccc(C=NNc3nc(-c4ccc5ccccc5c4)cs3)cc2)cc1` [Compound 10, 2-[2-((4-(4-Cyanophenoxy)phenyl)methylene)hydrazinyl]-4-(naphthalen-2-yl)thiazole] yielded a melting point of 204 to 205 °C. Also, the half-inhibitory concentration (IC50) in data set [4] is above 500 µg/mL. The IC50 in data set [2] is above 500 µg/mL. The molecule further gave an IC50 with C6 rat glioma cell line above 500 µg/mL.
